Measurements as given in patent publication US20170128489A1 (priority 2014, published 2017).
pEC50: −log10 of the molar value. Where two headings read alike, the source gives them in different places.

Tests used:
[1] = target: influenza A M2 channels (A/Udorn/72, S31N mutant) (Influenza A virus, UniProt P0DOF5, S31N); format: cell-based; conditions: for Percent Block / pEC50: pH 5.3
[2] = system: influenza A (S31N), A/California/07/2009; format: cell-based, Influenza A virus
[3] = system: influenza A (S31N), A/California/07/2009; format: cell-based, Influenza A virus; remark: listed apart in the source
M2 (22-62, S31N) = M2 (22-62, S31N) (Influenza A virus, UniProt P0DOF5, S31N); format: biochemical
[4] = target: M2 22-62 peptide, mutant A/Udorn/72 S31N (Influenza A virus, UniProt P0DOF5, S31N); format: biochemical

Row | Compound | Percent Block [1] | % Block [2] [%] | pEC50 [2] | Percent Washout [1] [%] | % Block [3] [%] | pEC50 [3] | % Block (M2 (22-62, S31N)) [%] | Mutant Percent Block [4] [%] | Mutant w/ Compound Proton Flux [4] [H^+/sec/channel] | pEC50 (M2 (22-62, S31N)) | pEC50 [1]
1 | Cobalt bisethylenediamine pinanamine imidazole [Pin-Imid-Co-Bis(en)] | No Block | 65.6 | 4.88 | – | – | – | – | – | – | – | –
2 | NC(=O)CN(CC(N)=O)C1CCCCCCC1 [CO-IDAm, Cyclooctylimidodiacetamide] | 17% | – | – | 100 | – | – | – | – | – | – | –
3 | O=C(O)CN(CC(=O)O)C1CCCCCCC1 [CO-IDA, Cylcooctyliminodiacetic acid] | No Block | – | – | – | – | – | – | – | – | – | –
4 | O=C(O)CN(CC(=O)O)C12CC3CC(CC(C3)C1)C2.[Cu] [Amt-IDA-Cu, Copper N-(1-adamantyl)-iminodiacetic acid] | – | – | – | – | 82 | 4.66 | 82 | – | – | – | –
5 | O=C(O)CN(CC(=O)O)C1CCCCCCC1.[Cu] [CO-IDA-Cu, Copper cyclooctyliminodiacetic acid] | 26% | 62.2 | 4.52 | 94 | – | – | – | 75.75 | 12.89 | – | –
6 | Copper cyclooctylimidodiacetamide [CO-IDAm-Cu] | 86% | 60.2 | 4.47 | 10 | – | – | – | – | – | – | –
7 | O=C(O)CN(CC(=O)O)C1CCCCCCC1.[Zn] [CO-IDA-Zn, Zinc cyclooctyliminodiacetic acid] | 32% | 61.5 | – | 80 | – | – | – | 76.29 | 13.21 | – | –
8 | [Cl][Cu][Cl] [CuCl2, reference compound] | – | – | – | – | 63 | 4.24 | 94 | – | – | 5.21 | –
9 | Cobalt Biscyclooctylimidodiacetic acid [Bis(CO-IDA)-Co] | 28% | 50.6 | 4.61 | 89 | – | – | – | – | – | – | 3.62
10 | NCCNCCN.[Cl][Cu][Cl] [Cu(dien)Cl2, reference compound] | – | – | – | – | 66 | 4.29 | – | – | – | – | –
11 | Copper N-(1-adamantyl)iminoacetate acetylacetonate [Amt-IMA-Cu-ACAC] | 65% | – | – | 58 | 97 | 5.54 | 96 | – | – | – | –
12 | Copper pinanamine imidazole [Pin-Imid-Cu] | – | 71.6 | – | – | – | – | – | – | – | – | –
13 | CC(=O)[O-].CC(=O)[O-].[Cu+2] [Cu(Acetate)2, reference compound] | 70% | 38 | 4.39 | 4 | – | – | – | 67.23 | 17.85 | – | 4.13
14 | CC(=O)[O][Zn]1[O]C(=O)C[N]1C1CCCCCCC1 [CO-IMA-Zn, Zinc cyclooctylaminoacetic acid] | 42% | 79.8 | 4.90 | 93 | – | – | – | – | – | – | –
15 | Zinc cyclooctylimidodiacetamide [CO-IDAm-Zn] | 42% | 54 | 4.67 | 74 | – | – | – | – | – | – | –
16 | Copper N-(1-cyclooctyl)iminoacetate acetylacetonate [CO-IMA-Cu-ACAC] | 73% | 65.7 | 4.88 | 16 | – | – | – | – | – | – | –
17 | O=C1C[N](C2CCCCCCC2)[Cu]2([O]1)[O]C(=O)C[N]2C1CCCCCCC1 [Bis(CO-IMA)-Cu, Copper biscyclooctyl iminomonoacetic acid] | 81% | 66.4 | 4.60 | 11 | – | – | – | 70.38 | 16.95 | – | –
